Measured values taken from patent US20230390235A1, “THERAPEUTIC AGENT FOR COVID-19” (priority 2020, published 2023).
Where two headings read alike, the source gives them in different places.

Assays:
[1] = system: SARS-CoV-2 virus (USA_WA1/2020); experiment: microbe, parasite or virus in culture; type: cell-based
[2] = system: SARS-CoV-2 S pseudotype virus (wild type: WT); type: cell-based; details: 100 μM, ACE2-expressing HEK293T cells, GFP fluorescence, FIG. 1
[3] = system: ACE2-expressing HEK293T cells
[4] = Pharmacokinetic (PK) measurement of SNJ-1945, oral, rats, LC/MS/MS; type: in vivo; details: male, S.D., rat plasma; for AUC(0-t): read-out: AUC0-8
Protocol: Eight-week-old male S.D. rats were used for the examination of SNJ-1945. Each animal was kept in a room at a temperature of 21.6° C. to 22.3° C., a humidity of 47.7% to 60.3%, with lighting for 12 hours/day, and a ventilation frequency of 6 to 20 times/hour. The rats were fasted from the evening of the day before administration, and feeding was resumed after the completion of blood sampling, which was conducted 8 hours after the administration. Water was taken freely.
(§1) For the examination of SNJ-1945, four groups of 1, 3, 10, and 30 mg/kg (n=3 for each) were set. For the examination of SJA-6017, two groups of 100 mg/kg (n=3 for each) and 500 mg/kg (n=8 for each) were set.
For SNJ-1945, methylcellulose was dissolved in water for injection to a concentration of 1 w/v %. A test substance was suspended in the resultant to prepare samples having concentrations of 0.25 mg/mL (for 1 mg/kg), 0.75 mg/mL (for 3 mg/kg), 2.5 mg/mL (for 10 mg/kg), and 7.5 mg/mL (for 30 mg/kg). The administration solution was dispensed into brown glass bottles.
(§2) SNJ-1945 was orally administered forcibly a single time by using a gastric sonde at doses of 1, 3, 10, and 30 mg/4 mL/kg. SJA-6017 was orally administered forcibly a single time using a gastric sonde at a dose of 5 mL/kg.
In the SNJ-1945 administration group, blood samples were taken over time from the subclavian vein 30 minutes and 1, 2, 4, and 8 hours after administration. The obtained blood was immediately centrifuged at 10000×g for 3 minutes, and plasma was collected.
Plasma (20 μL) obtained from the SNJ-1945 administration group was placed in a polypropylene tube, methanol (20 μL) was added thereto, and an internal standard solution (SNJ-1945-d7; 100 μL) was added thereto, followed by stirring for about 5 minutes. Thereafter, centrifugation (10,000×g) was performed for 5 minutes, and 100 μL of a supernatant was transferred to another polypropylene tube. 1 mmol/L EDTA-2K (100 μL) was added, followed by stirring for about 10 seconds. The solution was set in an autosampler and measured within 72 hours.
A Shimadzu 20AD LC System 2 (prominence UFLCXR system; Shimadzu Corporation) and a mass spectrometer (API5000; AB SCIEX) were used as measuring instruments. High-performance liquid chromatography was performed according to the following conditions. Column: CAPCELL CORE AQ, 2.7 μm, 2.1×50 mm (Shiseido Japan Co., Ltd.); column temperature: 60° C.; mobile phase A: 5 mmol/L ammonium hydrogen carbonate/l mmol/LEDTA-2K (500:1, v/v); mobile phase B: methanol; flow rate: 0.8 mL/min.
The mass spectrometer was set according to the following conditions: ionization mode: turbo ion spray; measurement mode: multiple reaction monitoring; detection mode: negative; collision gas: N2, 6 (number of valves opened); curtain gas: N2, 15 psi, ion source gas 1: air, 80 psi; ion source gas 2: air, 80 psi; ion spray voltage: −4500 V; temperature: 500° C.; channel electron multiplier: 1800 V or 2000 V. Monitoring ions and dwell time were set as shown in Table 4 below.
The measurement results of plasma concentration were analyzed by non-compartmental analysis in the pharmacokinetic analysis software Phoenix WinNonlin Ver. 6.3 (Pharsight Corporation as part of Certara), and each pharmacokinetic parameter was calculated in accordance with the method shown in Table 5 below.

in vivo = experiment: in vivo; design: species or system S.D. rats; details: male, S.D., rat, po
Protocol: Male S.D. rats weighing 160 to 210 g were used for the examination of SJA-6017. Each animal was kept in a room at a temperature of 23±2° C., a humidity of 55±10%, with lighting for 12 hours, and a ventilation frequency of 15 times/hour or more. The rats were fasted from the night before administration and feeding was resumed immediately after the administration. Water was taken freely.
as §1
For SJA-6017, sodium carboxymethylcellulose was dissolved in distilled water to a concentration of 0.5% (w/v). A test substance was suspended in the resultant to prepare samples having concentrations of 10% (for […]) and 2% (for 100 mg/kg).
as §2
In the SJA-6017 administration group, blood samples were collected from the abdominal aorta under ether anesthesia 30 minutes and 1, 2, 4 and 8 hours after administration. The resulting blood was immediately centrifuged at 5,000 rpm for 10 minutes, and plasma was collected.
Plasma (200 μL) obtained from the SJA-6017 administration group was placed in a brown Spitz tube, and 0.01 M HCl (0.5 mL) was added thereto, and diethyl ether (3 mL) was further added, followed by shaking for 10 minutes. Thereafter, centrifugation (3,000 rpm) for 10 minutes was performed to separate the aqueous layer from the diethyl ether phase. The lower aqueous layer alone was frozen in dry-ice acetone, and the diethyl ether layer was separated into another brown Spitz tube. Thereafter, drying was conducted under reduced pressure, and acetonitrile (100 μL) and a 0.01M hydrochloric acid solution (200 μL) of 5 mM phenylhydrazine hydrochloride were added, followed by stirring and dissolving. The solution was transferred to an HPLC vial and allowed to react for 1 hour at 40° C. using a water bath. 150 μL of this sample solution was analyzed by HPLC.
• Detector: UV absorbance spectrophotometer (measurement • wavelength: 272 nm) • Column: Capcell-pak SG-120 (250 mm) • Column temperature: 40° C. • Mobile phase: 0.02 M phosphate buffer (pH of 7.0)/acetonitrile mixture (45:55) • Flow rate: 1.0 mL/min
Cmax and AUC0-8 were calculated from the mean plasma concentration at each time point.

[5] = Severe acute respiratory syndrome coronavirus 2, Vero C1008, 72 h, read-out: CPE reduction (IC50)
[6] = Severe acute respiratory syndrome coronavirus 2, Vero C1008, 72 h; read-out: CPE reduction (IC50)

CCC(CC)COC(=O)[C@H](C)N[P@](=O)(OC[C@H]1O[C@@](C#N)(c2ccc3c(N)ncnn23)[C@H](O)[C@@H]1O)Oc1ccccc1 [Remdesivir]
IC50 [1, 5]: 10.6 µM

COCCOCCOC(=O)N[C@@H](CC(C)C)C(=O)N[C@@H](Cc1ccccc1)C(=O)C(=O)NC1CC1 [SNJ-1945]
entry inhibition of pseudotype virus into cells [2]: inhibits entry
IC50 [1, 6]: 1.52 µM
highest concentration at which test compound did not show cytotoxicity [3]: 100 µM
Cmax ([4]; single oral dose 1 mg/kg): 186 ng/mL
AUC(0-t) ([4]; single oral dose 1 mg/kg): 168 ng·h/mL
Cmax ([4]; single oral dose 3 mg/kg): 391 ng/mL
AUC(0-t) ([4]; single oral dose 3 mg/kg): 380 ng·h/mL
Cmax ([4]; single oral dose 10 mg/kg): 553 ng/mL
AUC(0-t) ([4]; single oral dose 10 mg/kg): 691 ng·h/mL
Cmax ([4]; single oral dose 30 mg/kg): 821 ng/mL
AUC(0-t) ([4]; single oral dose 30 mg/kg): 1170 ng·h/mL

CCN(CCO)CCCC(C)Nc1ccnc2cc(Cl)ccc12 (centres unmarked) [Hydroxychloroquine]
IC50 [1, 5]: 6.49 µM

CC(C)C[C@@H](C=O)NC(=O)[C@@H](NS(=O)(=O)c1ccc(F)cc1)C(C)C [SJA-6017]
IC50 [1, 6]: 0.21 µM
AUC(0-t) (in vivo; 100 mg/kg): 679 ng·h/mL
Cmax (in vivo; 100 mg/kg): 284 ng/mL
AUC(0-t) (in vivo; 500 mg/kg): 1840 ng·h/mL
Cmax (in vivo; 500 mg/kg): 348 ng/mL

CCOC(=O)[C@H]1O[C@@H]1C(=O)N[C@@H](CC(C)C)C(=O)NCCC(C)C [E64d]
IC50 ([1]; read-out: CPE reduction (IC50)): 8.23 µM

CCN(CC)CCCC(C)Nc1ccnc2cc(Cl)ccc12 (centres unmarked) [Chloroquine]
IC50 [1, 5]: 2.06 µM
